Experimental data from ChEMBL document CHEMBL1201862, “PubChem BioAssay data set” (2004).
Blank lines part the entries; values can stand above or below the molecule they belong to. Activity calls are given as the source filed them.

Columns and labels:
[1] = target: T1, Coagulation factor XII (Homo sapiens, UniProt P00748); test: activated coagulation factor XII inhibitor potency, concentration-effect curve, cell-free (AID 716); type: functional
T1 sequence (P00748 whole entry): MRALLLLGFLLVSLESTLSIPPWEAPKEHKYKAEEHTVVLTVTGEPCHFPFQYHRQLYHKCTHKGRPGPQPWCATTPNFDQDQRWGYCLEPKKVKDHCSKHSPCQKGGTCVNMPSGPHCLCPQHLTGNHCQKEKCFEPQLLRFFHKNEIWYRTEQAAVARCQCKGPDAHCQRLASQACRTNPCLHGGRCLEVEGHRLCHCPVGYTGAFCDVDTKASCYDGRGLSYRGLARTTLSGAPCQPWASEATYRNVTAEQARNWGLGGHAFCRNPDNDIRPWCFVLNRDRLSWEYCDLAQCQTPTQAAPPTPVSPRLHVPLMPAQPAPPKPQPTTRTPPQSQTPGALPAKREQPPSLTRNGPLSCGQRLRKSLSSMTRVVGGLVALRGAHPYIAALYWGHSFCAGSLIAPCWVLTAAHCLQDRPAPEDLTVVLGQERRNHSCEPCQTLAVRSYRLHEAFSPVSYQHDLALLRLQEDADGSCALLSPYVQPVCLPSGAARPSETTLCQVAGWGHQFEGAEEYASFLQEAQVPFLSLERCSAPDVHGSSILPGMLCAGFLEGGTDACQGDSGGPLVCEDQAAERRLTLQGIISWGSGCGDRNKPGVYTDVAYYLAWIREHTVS

[2] = target: T2, Sphingosine 1-phosphate receptor 4 (Homo sapiens, UniProt O95977); test: Late-stage fluorescence dose response cell-based assay to identify agonists of the Sphingosine 1-Phosphate Receptor 4 (S1P4): purchased compounds EC50. [Related pubchem assays (depositor defined):AID1509, AID1523, AID1563, AID1686, AID1701, AID1801]; type: functional
T2 sequence (O95977 whole entry): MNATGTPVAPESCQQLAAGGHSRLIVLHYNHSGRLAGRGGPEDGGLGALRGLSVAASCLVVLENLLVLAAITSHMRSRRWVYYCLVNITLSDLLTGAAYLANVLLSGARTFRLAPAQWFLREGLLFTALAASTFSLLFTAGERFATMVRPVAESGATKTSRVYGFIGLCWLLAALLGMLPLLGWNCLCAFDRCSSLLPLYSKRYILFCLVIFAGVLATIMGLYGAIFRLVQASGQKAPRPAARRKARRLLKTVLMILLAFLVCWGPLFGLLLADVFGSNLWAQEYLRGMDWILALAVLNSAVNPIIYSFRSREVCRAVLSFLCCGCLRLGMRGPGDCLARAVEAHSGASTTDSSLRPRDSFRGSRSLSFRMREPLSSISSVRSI

[3] = target: Hexokinase (Trypanosoma brucei, UniProt Q38C41); test: Confirmation assay for inhibitors of Trypanosoma brucei hexokinase 1-Analogue-first series. [Related pubchem assays (depositor defined):AID1430, AID1632, AID2516, AID2560, AID2579, AID2600, AID449725, AID492951]; type: functional
[4] = target: Tumor necrosis factor (Homo sapiens, UniProt P01375); test: analog potency on TNFa NF-kB signaling – cell-based, revised, SAR follow-up (AID 2337); type: functional
[5] = target: Nucleotide-binding oligomerization domain-containing protein 1 (Homo sapiens, UniProt Q9Y239); test: blockers of NOD1 pathway activity – revised, SAR follow-up (AID 2333); type: functional
[6] = system: HEK293; test: cells; conditions: Homo sapiens;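 also: cells exposed to compound for 14 hours overnight before viability readout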
[7] = target: Bcl-2-like protein 10 (Homo sapiens, UniProt Q9HD36); test: Bcl-B/TR3 peptide binding disruption – biochemical, fluorescence polarization, FITC-TR3 peptide, selectivity assay for Bfl-1 inhibitor project, primary screen (AID 748);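 also: fluorescence polarization from a fluorescein-labelled TR3 peptide binding purified Bcl-B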
[8] = target: Induced myeloid leukemia cell differentiation protein Mcl-1 (Homo sapiens, UniProt Q07820); test: blockers of MCL1 binding to BIM peptide – biochemical, fluorescence polarization, BIM-BH3 peptide, 1536-well, dose response (AID 2217)
[9] = target: Estrogen receptor beta (Homo sapiens, UniProt Q92731); test: blockers of SRC-3 recruitment to ERβ – biochemical, ELISA, streptavidin-HRP readout, orthogonal assay, confirmation (AID 1060)
[10] = target: Bcl-2-like protein 1 (Homo sapiens, UniProt Q07817); test: blockers of BCLXL peptide binding – biochemical, fluorescence polarization, 1536-well, selectivity assay for MCL1 inhibitor project, dose response (AID 2218)
[11] = target: Protein Tat (Human immunodeficiency virus type 1 group M subtype B (isolate HXB2)(HIV-1), UniProt P04608); type: functional;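 also: tat binding to TAR RNA read out by fluorescence polarization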
[12] = viability loss in THP-1 monocytes – THP-1 cells, cytotoxicity control for Vif-APOBEC3G degradation inhibitor project, dose response (AID 1117359); type: functional; conditions: THP-1
[13] = target: Glyceraldehyde-3-phosphate dehydrogenase (Homo sapiens, UniProt P04406)
[14] = target: T3, Alkaline phosphatase, tissue-nonspecific isozyme (Homo sapiens, UniProt P05186); test: potency against alkaline phosphatase TNAP – biochemical, luminescent, dose response, SAR follow-up (AID 1056)
T3 sequence (P05186 whole entry): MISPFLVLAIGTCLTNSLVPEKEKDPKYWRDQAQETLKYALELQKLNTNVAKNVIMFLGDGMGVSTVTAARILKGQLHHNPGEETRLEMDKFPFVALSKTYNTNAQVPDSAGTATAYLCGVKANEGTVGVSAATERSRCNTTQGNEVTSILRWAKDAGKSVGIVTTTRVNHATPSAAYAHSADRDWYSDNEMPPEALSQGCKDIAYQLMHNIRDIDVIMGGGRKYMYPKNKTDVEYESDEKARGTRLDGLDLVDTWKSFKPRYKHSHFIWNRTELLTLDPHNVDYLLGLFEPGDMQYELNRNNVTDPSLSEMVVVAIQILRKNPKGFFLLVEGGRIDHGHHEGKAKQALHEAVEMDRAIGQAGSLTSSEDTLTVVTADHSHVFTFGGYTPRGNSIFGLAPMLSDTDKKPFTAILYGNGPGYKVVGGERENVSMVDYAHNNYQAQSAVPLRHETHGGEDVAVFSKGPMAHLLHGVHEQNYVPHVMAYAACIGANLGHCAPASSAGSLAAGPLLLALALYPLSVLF

Chain of Hexokinase (Q38C41 whole entry): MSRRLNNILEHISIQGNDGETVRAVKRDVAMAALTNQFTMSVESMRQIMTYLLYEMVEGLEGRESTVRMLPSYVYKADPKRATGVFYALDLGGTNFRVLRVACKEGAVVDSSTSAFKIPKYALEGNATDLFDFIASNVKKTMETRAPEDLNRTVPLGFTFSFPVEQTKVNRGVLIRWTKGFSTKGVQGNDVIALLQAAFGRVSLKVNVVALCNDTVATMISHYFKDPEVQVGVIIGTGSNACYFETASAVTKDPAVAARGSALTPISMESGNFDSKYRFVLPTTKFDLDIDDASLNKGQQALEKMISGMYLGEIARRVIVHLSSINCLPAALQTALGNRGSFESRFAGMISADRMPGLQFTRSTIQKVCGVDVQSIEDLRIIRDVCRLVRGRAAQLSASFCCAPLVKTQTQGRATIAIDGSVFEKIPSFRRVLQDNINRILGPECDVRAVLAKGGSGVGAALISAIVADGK
Chain of Nucleotide-binding oligomerization domain-containing protein 1 (Q9Y239 whole entry, the tested form may be a part): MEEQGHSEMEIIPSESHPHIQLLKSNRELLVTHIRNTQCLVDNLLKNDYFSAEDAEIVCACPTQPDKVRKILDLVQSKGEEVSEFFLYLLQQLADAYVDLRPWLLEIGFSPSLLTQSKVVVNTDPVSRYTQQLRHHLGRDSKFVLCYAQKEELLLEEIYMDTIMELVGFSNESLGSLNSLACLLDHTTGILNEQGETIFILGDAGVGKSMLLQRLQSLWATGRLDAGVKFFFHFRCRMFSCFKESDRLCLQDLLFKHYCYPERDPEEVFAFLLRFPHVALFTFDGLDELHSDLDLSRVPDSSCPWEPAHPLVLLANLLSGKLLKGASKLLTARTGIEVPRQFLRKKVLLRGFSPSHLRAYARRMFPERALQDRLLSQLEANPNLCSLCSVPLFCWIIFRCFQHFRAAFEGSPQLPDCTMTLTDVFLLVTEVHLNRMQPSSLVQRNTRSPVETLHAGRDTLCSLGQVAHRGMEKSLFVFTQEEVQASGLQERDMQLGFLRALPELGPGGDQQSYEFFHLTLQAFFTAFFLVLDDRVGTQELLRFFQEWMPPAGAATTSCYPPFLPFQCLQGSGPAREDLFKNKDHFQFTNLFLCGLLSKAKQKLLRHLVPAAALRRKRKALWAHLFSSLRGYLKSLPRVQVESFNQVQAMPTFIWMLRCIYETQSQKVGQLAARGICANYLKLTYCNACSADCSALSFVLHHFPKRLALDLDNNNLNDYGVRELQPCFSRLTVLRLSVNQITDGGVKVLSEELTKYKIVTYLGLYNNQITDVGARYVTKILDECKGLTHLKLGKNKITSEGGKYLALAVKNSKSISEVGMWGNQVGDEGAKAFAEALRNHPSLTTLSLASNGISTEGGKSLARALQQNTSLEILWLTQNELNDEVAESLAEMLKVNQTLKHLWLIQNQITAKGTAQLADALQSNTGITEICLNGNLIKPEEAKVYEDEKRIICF
Chain of Protein Tat (P04608 whole entry): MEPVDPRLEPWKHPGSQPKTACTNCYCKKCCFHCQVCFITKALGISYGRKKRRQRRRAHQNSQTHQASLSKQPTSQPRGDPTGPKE
Chain of Bcl-2-like protein 1 (Q07817 whole entry): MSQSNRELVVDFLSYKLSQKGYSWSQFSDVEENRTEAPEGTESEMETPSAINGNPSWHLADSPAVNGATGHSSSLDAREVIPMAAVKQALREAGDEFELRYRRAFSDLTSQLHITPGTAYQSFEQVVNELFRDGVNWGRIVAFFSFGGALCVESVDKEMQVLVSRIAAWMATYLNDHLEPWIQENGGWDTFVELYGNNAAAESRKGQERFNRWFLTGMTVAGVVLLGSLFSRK
Chain of Induced myeloid leukemia cell differentiation protein Mcl-1 (Q07820 whole entry): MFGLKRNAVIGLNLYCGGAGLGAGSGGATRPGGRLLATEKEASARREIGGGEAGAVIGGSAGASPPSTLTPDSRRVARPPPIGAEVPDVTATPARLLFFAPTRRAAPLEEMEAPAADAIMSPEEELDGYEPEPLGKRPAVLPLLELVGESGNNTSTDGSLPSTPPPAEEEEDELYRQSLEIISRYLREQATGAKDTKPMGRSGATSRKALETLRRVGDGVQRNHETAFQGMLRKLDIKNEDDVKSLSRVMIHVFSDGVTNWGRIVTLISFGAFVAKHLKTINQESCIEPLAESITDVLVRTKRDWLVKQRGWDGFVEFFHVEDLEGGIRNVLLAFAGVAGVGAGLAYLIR
Chain of Bcl-2-like protein 10 (Q9HD36 whole entry): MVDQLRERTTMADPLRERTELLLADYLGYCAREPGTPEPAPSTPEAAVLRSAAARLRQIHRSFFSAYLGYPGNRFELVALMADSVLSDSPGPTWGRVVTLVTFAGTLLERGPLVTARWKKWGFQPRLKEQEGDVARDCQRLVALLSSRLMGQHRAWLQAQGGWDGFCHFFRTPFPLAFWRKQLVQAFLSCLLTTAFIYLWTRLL
Chain of Tumor necrosis factor (P01375 whole entry, the tested form may be a part): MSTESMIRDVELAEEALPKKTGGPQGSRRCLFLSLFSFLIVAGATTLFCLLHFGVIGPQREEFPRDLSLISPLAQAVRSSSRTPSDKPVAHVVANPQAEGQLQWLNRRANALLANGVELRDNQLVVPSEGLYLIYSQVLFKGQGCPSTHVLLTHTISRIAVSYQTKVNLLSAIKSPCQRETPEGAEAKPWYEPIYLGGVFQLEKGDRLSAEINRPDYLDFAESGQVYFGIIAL
Chain of Estrogen receptor beta (Q92731 whole entry): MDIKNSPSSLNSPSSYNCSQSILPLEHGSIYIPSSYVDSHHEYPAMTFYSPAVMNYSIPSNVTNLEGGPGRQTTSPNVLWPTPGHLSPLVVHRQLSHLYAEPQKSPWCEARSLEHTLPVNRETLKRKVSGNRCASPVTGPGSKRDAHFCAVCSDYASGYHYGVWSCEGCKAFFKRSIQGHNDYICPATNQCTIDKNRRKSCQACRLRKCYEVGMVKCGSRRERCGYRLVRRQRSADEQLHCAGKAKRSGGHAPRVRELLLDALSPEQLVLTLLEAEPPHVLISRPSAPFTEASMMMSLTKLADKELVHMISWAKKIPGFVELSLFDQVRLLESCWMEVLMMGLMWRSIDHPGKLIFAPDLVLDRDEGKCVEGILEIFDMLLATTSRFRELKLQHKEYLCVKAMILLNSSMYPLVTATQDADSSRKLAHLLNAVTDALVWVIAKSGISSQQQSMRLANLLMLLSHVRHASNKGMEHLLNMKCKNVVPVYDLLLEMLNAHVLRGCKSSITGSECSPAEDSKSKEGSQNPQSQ
Chain of Glyceraldehyde-3-phosphate dehydrogenase (P04406 whole entry): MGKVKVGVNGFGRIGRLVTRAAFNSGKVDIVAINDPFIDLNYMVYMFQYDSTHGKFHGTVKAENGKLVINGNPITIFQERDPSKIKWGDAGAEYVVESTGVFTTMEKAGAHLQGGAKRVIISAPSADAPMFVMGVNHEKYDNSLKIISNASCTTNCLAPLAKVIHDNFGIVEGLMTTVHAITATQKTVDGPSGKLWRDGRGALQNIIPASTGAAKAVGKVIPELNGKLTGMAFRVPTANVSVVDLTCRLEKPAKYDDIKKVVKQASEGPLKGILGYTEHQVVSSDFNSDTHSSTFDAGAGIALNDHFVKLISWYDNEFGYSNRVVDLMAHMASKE

Structure (SMILES): O=C(Nc1ccc(Cl)c(Cl)c1)N1CC=CCC1
IC50 [1]: > 50 µM (inactive)

Structure (SMILES): CCCc1ccc(C(=O)Nc2cc(Cl)ccc2C(=O)O)cc1
IC50 [3]: 4.54 µM (active)

Structure (SMILES): O=C(Nc1ccc(S(=O)(=O)O)cc1)c1ccc(CN2CCc3ccccc3C2)cc1
IC50 [4]: > 20 µM (inactive)
IC50 [5]: > 20 µM (inactive)
IC50 [6]: > 20 µM (inactive)

Structure (SMILES): Cc1cc(=O)n(-c2ccccc2)s1
IC50 [3]: > 25 µM (inactive)

Structure (SMILES): COc1ccc(OC)c(S(=O)(=O)Nc2ccc3ccccc3c2)c1
IC50 [13]: > 10 µM (inconclusive)
IC50 [14]: > 10 µM (inactive)

Continued, in another order:

EC50 [2]: > 50 µM (inactive)
Structure (SMILES): Cc1ccc(OCc2cn3cc(Cl)ccc3n2)c([N+](=O)[O-])n1

EC50 [2]: > 50 µM (inactive)
Structure (SMILES): Cc1ccc(OC(C)C(=O)Nc2ccc(Cl)cc2Cl)c([N+](=O)[O-])n1 (stereo unspecified)

IC50 [7]: 23.7 µM (active)
IC50 [8]: 16.3 µM (not active)
IC50 [9]: < 0.023 µM (not active)
IC50 [10]: > 109 µM (not active)
IC50 [11]: > 100 µM (active)
Structure (SMILES): CC(=N)/C(C#N)=C(/O)CSc1nnc(NC(C)C)s1
CC50 [12]: > 40 µM (active)
